Measurements as given in patent US20040043047A1, “Cosmetic or dermatological compositions containing at least one substance for increasing the functionality and/or expression of the CD44 membrane receptors of skin cells” (priority 1999, published 2004).
Where two headings read alike, the source gives them in different places. Marks after values point to notes of the source that are not given here.

Tests used:
CD44 receptor = experiment: Functionality of the CD44 receptor: hyaluronic acid binding by keratinocytes after 48 hours of treatment, normalized to cellular DNA (protocol II-9); assay type: cell-based, human; settings: 0.22 mM
Procedure: The products whose activity on the expression of the CD44 receptor it is desired to evaluate are added to the culture medium 24 hours after inoculation of the cells. To do this, the inoculation medium is removed and replaced with an identical medium containing the test substance. The incubation then continues for 48 hours. Controls are carried out in the absence of the products to be evaluated, and in the presence of the excipient which was used to dissolve them. All the factors are otherwise equal.
9—Measurement of the functionality of the CD44 receptor.
(§1) The values thus obtained are normalized, taking account of the amount of cellular material present in the wells. To do this, the cellular DNA content is measured by the DAPI method (see protocol below).
III—Quantification of the Cellular DNA with […] Dihydrochloride (DAPI)
The quantification of the cellular DNA may be carried out directly on the cultures after quantification of the CD44 expression.
30 μl of methanol at −20° C. are added to each well for 1 min.
After rinsing twice with PBS, a 20 μg/ml DAPI solution is added over 15 minutes at ambient temperature and in darkness.
3—Fluorescence Quantification:
After rinsing twice with PBS, the fluorescence present in the wells is read with 50 μl of PBS at λ excitation=355 nm and λemission=460 nm.

CD44 = experiment: Expression of the hyaluronic acid receptor (CD44) at the surface of keratinocytes, anti-CD44 antibody labelling normalized to cellular DNA (protocol II); assay type: cell-based, human; settings: 0.22 mM
Procedure: II—Measurement of the Expression of the Hyaluronic Acid Receptor (CD44) at the Surface of Keratinocytes
Steps 1 and 2 are identical to steps 1 and 2 of I.
3—Binding of the cells to 2% paraformaldehyde in PBS containing calcium and magnesium for 5 minutes at ambient temperature.
4—Saturation of the Nonspecific Antigen-Antibody Binding Sites:
After rinsing twice with PBS, the cells are incubated with PBS saturation medium with calcium and magnesium supplemented with 5% v/v of calf serum and 0.05% w/v of sodium azide, for 1 hour at ambient temperature. […]
7—Fluorescence Quantification:
After rinsing twice with the saturation medium, the fluorescence present in the wells is read with 50 μl of PBS at λ excitation=544 nm and k emission=590 nm. […]
The products whose activity on the expression of the CD44 receptor it is desired to evaluate are added to the culture medium 24 hours after inoculation of the cells. […] Controls are carried out in the absence of the products to be evaluated, and in the presence of the excipient which was used to dissolve them. […]
as §1
III—Quantification of the Cellular DNA with […] Dihydrochloride (DAPI) […]
3—Fluorescence Quantification: […]

human keratinocytes = settings: for Amount of fluorescence measured compared with calcium chloride at equivalent molarity: 5 and 10 mM; for Fluorescence measured (FU) Mean: Table III
Procedure: I-Measurement of the Amount of Haluronic Acid Bound to the Surface of Keratinocytes
The following steps are performed:
15,000 human keratinocytes are inoculated in culture wells (96-well plates) in a K-SFM medium (Gibco).
2—Production of Confluent Cultures:
Incubation of the cultures for 72 hours at 37° C. under a humidity-saturated atmosphere, with 5% CO2, with renewal of the culture medium after 48 h.
3—Binding of Hyaluronic Acid:
Incubation of the cells for 4 hours at 4° C. with hyaluronic acid covalently bonded to a fluorochrome, […] (HA-FA), synthesized in the laboratory according to the technique described in “Preparation and properties of fluoresceine-labelled hyaluronate; carbohydrate research, 1975, Vol. 44, pp. 251-257”, prepared in K-SFM containing 0.2% sodium azide.
4—Evaluation of the Activity of the Test Products:
The products for which it is desired to evaluate the action on the amount of HA-FA bound by keratinocytes are added to the incubation medium at the start of incubation. Controls are carried out in the absence of the products to be evaluated and in the presence of their excipient which was used to dissolve them.
5—Nonspecific Binding of HA-FA.
In order to determine the nonspecific labelling, the same experimental conditions as in step 3 are rigorously used, but with the addition of 200 times more hyaluronic acid not labelled with a fluorochrome.
6—Fluorescence Quantification:
After the HA-FA binding medium has been removed, two rinses with PBS are carried out, after which the fluorescence bound to the keratinocytes is measured at an excitation wavelength λex 485 nm and an emission wavelength λem=538 nm.
7—Expressing the Results:
The results are expressed in fluorescence units (“specific fluorescence”), with the nonspecific fluorescence being deducted (see 5-).
To do this, the fluorescence values measured are reduced to the cellular DNA content, carried out according to the DAPI method (see III-).

## CC(O)C(=O)[O-].[Na+] (centres unmarked) [Sodium lactate, sodium lactate]
CD44 receptor; 48 hours of treatment, control 59 ± 8.5
  Binding of hyaluronic acid to the surface of human keratinocytes Binding (FU)/cellular DNA (FU) Mean: 105 ± 24
CD44 receptor; 48 hours, versus 0 mM control
  Binding of hyaluronic acid to the surface of human keratinocytes % increase: 78%
CD44; 48 hours, versus 0 mM control
  Expression of CD44 at the surface of human keratinocytes % increase: 32%
CD44; cells treated for 48 hours, control 189 ± 28
  Expression of CD44 at the surface of human keratinocytes CD44 (FU)/cellular DNA (FU) labelling Mean: 249 ± 31

## calcium gluconate
Human keratinocytes
  Amount of fluorescence measured compared with calcium chloride at equivalent molarity: significantly greater

## O=C([O-])[C@H](O)[C@@H](O)[C@H](O)[C@H](O)CO.[Na+] [sodium gluconate]
Human keratinocytes; sodium gluconate 10 mM with CaCl2 2.5 mM
  Fluorescence measured (FU) Mean: 27 FU
Human keratinocytes; sodium gluconate 10 mM with CaCl2 5 mM
  Fluorescence measured (FU) Mean: 84* FU
Human keratinocytes; sodium gluconate 10 mM with CaCl2 10 mM
  Fluorescence measured (FU) Mean: 2,186* FU
Human keratinocytes; sodium gluconate 10 mM, CaCl2 0 mM
  Fluorescence measured (FU) Mean: 6 FU
Human keratinocytes; relatively optimized conditions (10 mM CaCl2 / 2.5 mM sodium gluconate)
  Increase of the effects of calcium on hyaluronic acid binding, factor: ≥ 12

## manganese chloride [MnCl2]
Human keratinocytes
  Amount of fluorescence measured compared with calcium chloride at equivalent molarity: significantly greater
